{"source": "patent US20250255961A1", "about": "“METHODS TO STIMULATE IMMUNE RESPONSES TO MUTANT RAS USING NUCLEATED CELLS” (STEMCELL TECHNOLOGIES CANADA INC., priority 2020, published 2025)", "tested_on": "K-Ras G12D responder T cells", "assay": "IFN-γ ELISPOT: peptide-loaded HLA-A*11+ human PBMCs co-cultured with K-Ras G12D responder T cells", "format": "cell-based, transgenic mice", "conditions": "for IFN-γ expressing by K-Ras-G12D responder T cells upon co-culture: Example 1, FIG. 1, vehicle control DMSO, overnight 37° C.; for IFN-γ expressing responder T cells upon co-culture: PBMCs incubated with 100 μM SLP at room temperature without SQZ (Endo-G12D); for IFN-γ secretion by K-Ras-G12D responder T cells upon co-culture: Example 3, FIG. 3, HLA-A*11+ human PBMCs (donor 339) SQZ-loaded with 100 μM SLP", "experimental": "(§1) Human PBMCs from HLA-A*11^+ donor were prepared at a density of 10×10^6/mL, and SQZ-processed at room temperature through a constriction of 4.5 μm width, 10 μm length and 70 μm depth at 60 psi with 100 μM of the respective K-Ras G12D synthetic long peptide (either G12D^1-16, G12D^2-19, G12D^2-22, G12D^2-29) or with vehicle control (DMSO) in RPMI medium. Following SQZ-processing, the SQZ-loaded PBMCs were centrifuged, and the supernatant was discarded. The cells were subsequently washed once in R10 medium (RPMI+10% FCS+1% Pen/Strep), then washed twice in CTL medium (supplemented with 1% glutamine), before resuspension in fresh CTL medium (supplemented with 1% glutamine).\n2×10^5 SQZ-loaded PBMCs were then placed in co-culture with 5×10^4 K-Ras G12D responder T cells (generated in transgenic mice) in an IFN-γ ELISPOT plate. As a positive control, 10 μM K-Ras G12D^7-16 peptide containing the minimal epitope was added directly to untreated PBMCs and responder cells in the ELISPOT plate (peptide spike). The plate was incubated overnight at 37° C. and then developed/quantified according to manufacturer's instructions.\nas §1, with “and SQZ processed” for “and SQZ-processed”, “K-Ras” for “K-Ras G12D”, “(either wild type K-Ras^1-16 or K-Ras-G12D^1-16)” for “(either G12D^1-16, G12D^2-19, G12D^2-22, G12D^2-29)”, “SQZ-loaded PMBCs” for “SQZ-loaded PBMCs”, “glutamine). […]” for “glutamine).”\nas §1, with “donor (donor 339)” for “donor”, “10×10^6/mL, SQZ processed” for “10×10^6/mL, and SQZ-processed”, “K-Ras” for “K-Ras G12D”, “(either wild type K-Ras^2-22 or K-Ras G12D^2-22)” for “(either G12D^1-16, G12D^2-19, G12D^2-22, G12D^2-29)”, “SQZ-loaded PMBCs” for “SQZ-loaded PBMCs”, “glutamine). […]” for “glutamine).”\n2×10^5 of either the SQZ-loaded PBMCs (SQZ-G12D) or SLP-incubated PBMCs (Endo-G12D), or an equal volume of the fluid phase solution (FF-G12D) were then placed in co-culture with 5×10^4 K-Ras G12D responder T cells (generated in transgenic mice) in an IFN—Y ELISPOT plate. As a positive control, 10 μM K-Ras G12D^7-16 peptide containing the minimal epitope was added directly to untreated PBMCs and responder cells in the ELISPOT plate (spike). 10 μM wild type K-Ras^7-16 peptide was added to PBMCs and responder as another […] (spike). The plate was incubated overnight at 37° C. and then developed/quantified according to manufacturer's instructions.", "key": {"[1]": {"conditions": "HLA-A*11+ human PBMCs SQZ-loaded with 100 μM SLP"}}, "note": "Entries after “also recorded” stand apart in the source; their conditions may differ.", "data": [{"sequence": "MTEYKLVVVGADGVGK [G12D^1-16, K-Ras G12D synthetic long peptide, residues 1-16]", "values": [{"measurement": "IFN-γ expressing by K-Ras-G12D responder T cells upon co-culture", "setting": "[1]", "result": "increased amount; also recorded: significant increases"}, {"measurement": "IFN-γ expressing K-Ras-G12D responder T cells upon co-culture", "setting": "Example 2, FIG. 2, HLA-A*11+ human PBMCs SQZ-loaded with 100 μM SLP, compared to vehicle control", "result": "significant increases"}, {"measurement": "IFN-γ expressing K-Ras-G12D responder T cells upon co-culture", "setting": "Example 2, FIG. 2, HLA-A*11+ human PBMCs SQZ-loaded with 100 μM SLP, compared to vehicle control, listed as K-Ras-G12D^1-16", "result": "increased amount"}, {"measurement": "IFN-γ expressing K-Ras-G12D responder T cells upon co-culture", "setting": "Example 7, FIG. 7, HLA-A*11+ human PBMCs SQZ-loaded with one SLP or a combination of two SLPs, each at 100 μM", "result": "significant increases"}, {"measurement": "IFN-γ expressing K-Ras G12D responder T cells upon co-culture", "setting": "Example 10, FIG. 10, HLA-A*11+ human PBMCs SQZ-loaded with 100 μM SLP (SQZ-G12D), listed as K-Ras-G12D^1-16", "result": "significant increases; also recorded: increased amount"}, {"measurement": "IFN-γ expressing responder T cells upon co-culture", "setting": "Example 10", "result": "did not result in increase"}]}, {"sequence": "TEYKLVVVGADGVGKSAL [G12D^2-19, K-Ras G12D synthetic long peptide, residues 2-19]", "values": [{"measurement": "IFN-γ expressing by K-Ras-G12D responder T cells upon co-culture", "setting": "[1]", "result": "increased amount; also recorded: significant increases"}]}, {"sequence": "TEYKLVVVGADGVGKSALTIQ [G12D^2-22, K-Ras G12D synthetic long peptide, residues 2-22]", "values": [{"measurement": "IFN-γ expressing by K-Ras-G12D responder T cells upon co-culture", "setting": "[1]", "result": "increased amount; also recorded: significant increases"}, {"measurement": "IFN-γ secretion by K-Ras-G12D responder T cells upon co-culture", "setting": "compared to vehicle control", "result": "significantly increased"}, {"measurement": "IFN-γ secretion by K-Ras-G12D responder T cells upon co-culture", "setting": "compared to vehicle control, listed as K-Ras-G12D^2-22", "result": "increased amount"}]}, {"sequence": "TEYKLVVVGADGVGKSALTIQLIQNHFV [G12D^2-29, K-Ras G12D synthetic long peptide, residues 2-29]", "values": [{"measurement": "IFN-γ expressing by K-Ras-G12D responder T cells upon co-culture", "setting": "[1]", "result": "increased amount; also recorded: significant increases"}, {"measurement": "IFN-γ expressing K-Ras G12D responder T cells upon co-culture", "setting": "Example 10, FIG. 10, HLA-A*11+ human PBMCs SQZ-loaded with 100 μM SLP (SQZ-G12D), listed as K-Ras-G12D^2-29", "result": "significant increases; also recorded: increased amount"}, {"measurement": "IFN-γ expressing responder T cells upon co-culture", "setting": "Example 10", "result": "did not result in increase"}]}, {"sequence": "VVVGADGVGK [K-Ras G12D^7-16, positive control peptide spike, reference compound]", "values": [{"measurement": "IFN-γ expressing K-Ras G12D responder T cells upon co-culture", "setting": "Example 10, 10 μM peptide added directly to untreated PBMCs and responder cells (peptide spike, positive control)", "result": "significant increases"}]}]}
